In patent US6291657A (priority 1993, dated 2001):

Tests used:
[1] = test system: N-linked oligosaccharide processing of gp120 in CHO cells (α-glucosidases I and II); assay: Endo H sensitivity of gp120 expressed in CHO cells (N-linked oligosaccharide processing); format: cell-based, Chinese hamster
Protocol: The arrows indicate the molecular weight of the untreated gp120 (120 kDa) and post endo H digestion (60 kDa). An additional band of low molecular weight (approximately 60 kDa) was present in some lanes and is a non-specific protein precipitated by the solid phase matrix.
The culture of CHO cells expressing soluble recombinant gp120 (from Dr. P. Stevens, MRC AIDS Directed Programme Reagent Project) and the radiolabelling of these cells was carried out by conventional procedure as described by Karlsson et al., J. Biol. Chem. 268, 570-576 (1993). Briefly, CHO cells were harvested mechanically, washed three times with phosphate buffered saline, 0.1M pH 7.2 (PBS) and resuspended in methionine- and cysteine-free RPMI-1640 medium (ICN-Flow Laboratories, High Wycombe, Bucks, U.K.) supplemented with 1% dialysed FCS. Cells (10^7 /ml) were preincubated in the presence or absence of NB-DNJ or NB-DGJ for 1 hr prior to the addition of 100 μCi/ml Tran^35 S-label (ICN-Flow) for 4 hr. The supernatants were collected and concentrated tenfold using a 30 kDa cut-off membrane (Amicon, Danvers, Mass., U.S.A.).
Immunoprecipitations were performed by conventional procedure as described by Karlsson supra. Supernatants were incubated with the mAb ABT 1001 monoclonal antibody (American Biotechnologies Inc., Cambridge, Mass., U.S.A.) at 0.5 μg/100 μl of supernatant for 30 min. at room temperature followed by sheep anti-mouse IgG1-coated magnetic beads (Dynal Ltd., Wirral, Merseyside, U.K., 1.2×10^7 beads per sample) for 1 hr. at 4° C. The beads were washed three times with 2% TRITON® X-100 in PBS and three times with PBS. Gp120 was eluted in […] reducing SDS-PAGE sample buffer with heating (95° C., 5 min.). Each sample was divided into two equal aliquots and 25 μl of dH2 O added to give a final volume of 50 μl. To one half of each sample 2 μl of endoglycosidase H (endo H, 1 unit/ml, Boehringer Mannheim Ltd., Lewes, Sussex, U.K.) was added and the other half left untreated. […]

[2] = test system: oligosaccharide biosynthesis in HL-60 cells; assay: Glycopeptide analysis by Con A-SEPHAROSE chromatography, HL-60 cells; format: cell-based, human

CCCCN1C[C@H](O)[C@@H](O)[C@@H](O)[C@H]1CO [NB-DGJ, N-butyl deoxygalactonojirimycin]
inhibition of α-glucosidases I and II suggested by gp120 endo H sensitivity ([1]; 0.5 mM and 5 mM): not acting as an inhibitor of α-glucosidases I and II | endo H sensitivity of gp120 N-linked glycans ([1]; 0.5 mM or 5 mM (FIG. 7)): partially sensitive to endo H and was indistinguishable from the untreated gp120 molecules | Total 3H-mannose recovered ([2]; HL-60): 844322 cpm | Bi-antennary ([2]; HL-60, percentage of radiolabelled glycopeptides eluted with 10 mM methylglucoside): 17.7% | Oligo-mannose & hybrid ([2]; HL-60, percentage of radiolabelled glycopeptides eluted with 500 mM methylmannoside): 54.2% | Tetra- & Tri-antennary ([2]; HL-60, percentage of radiolabelled glycopeptides non-bound): 28.1% | glycopeptide profile by Con A-SEPHAROSE chromatography ([2]; HL-60 and BW5147): unchanged glycopeptide profile
